The results in this text go back to US10168342B2, “Lipid probes and uses thereof” (THE SCRIPPS RESEARCH INSTITUTE, priority 2015, dated 2019).

Test [1] has as its target T1, human NUCB1 (Homo sapiens, UniProt Q02818).
T1 construct: made in house; host or cells: Escherichia coli BL21(DE3)
T1 sequence (Q02818 27-461): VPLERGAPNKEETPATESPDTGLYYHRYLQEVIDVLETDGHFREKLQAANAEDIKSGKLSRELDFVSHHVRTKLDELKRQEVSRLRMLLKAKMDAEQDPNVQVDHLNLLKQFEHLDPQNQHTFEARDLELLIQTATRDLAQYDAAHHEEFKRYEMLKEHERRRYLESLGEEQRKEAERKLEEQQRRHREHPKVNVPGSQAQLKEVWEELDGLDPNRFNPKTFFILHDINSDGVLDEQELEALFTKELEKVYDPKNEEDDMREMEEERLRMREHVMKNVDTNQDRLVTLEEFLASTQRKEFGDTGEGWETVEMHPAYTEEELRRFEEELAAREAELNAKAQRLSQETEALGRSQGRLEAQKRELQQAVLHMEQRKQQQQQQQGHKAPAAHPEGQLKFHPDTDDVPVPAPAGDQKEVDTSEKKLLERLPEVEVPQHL
Put plainly: In vitro gel-based competition of AEA-DA probe labeling of NUCB1. Type of test: binding. To be noted: AEA-DA 5.0 μM, lipids 20×, NUCB1-transfected HEK293T lysates. The procedure: Human NUCB1 lacking the N-terminal signal sequence (M1-A26) was subcloned into pET45b(+) vector (Novagen) using the following PCR primers for amplification: 5′-CATCAATTGTGTGCCCCTGGAGAGAG-3′ and 5′-AGCAAGCTTTACAGATGTTGGGGCACC-3′. Following transformation of Escherichia coli strain BL21(DE3) with hNucb1ΔSSpET45b(+), a single colony was isolated and grown in Terrific Broth containing carbenicillin (100 mg/L) at 37° C. to an OD600 of 0.8. Protein expression was induced with IPTG (1.0 mM) and the cells were incubated at 20° C. with shaking overnight. After centrifugation, cells pellets were resuspended in cold buffer containing HEPES (0.05M), NaCl (0.03 M), imidazole (5.0 mM), DNase (0.1 mg/mL), MgCl2 (1.0 mM), CaCl2 (1.0 mM) and EDTA-free Complete Protease Inhibitor Cocktail and lysed using a microfluidizer. […] The suspension was applied to a column and the retained resin was washed with HEPES buffer containing 500 mM NaCl until the eluent was clean of DNA and protein (A280/260) and then with HEPES buffer containing 10 mM imidazole (5 mL/1 mL resin). Protein was then slowly eluted with HEPES buffer containing 50 mM imidazole in 1.0 mL fractions and the combined fractions containing hNUCB1 were passed through a Sephadex G-25M column to remove imidazole and concentrated in an Amicon centrifugal filter device (Millipore). These conditions produced hNUCB1 at approximately 10 mg/L of culture; however, several lower molecular weight fragments were also present in this preparation. hNUCB1 was further purified by size exclusion chromatography.
(§1) Cell lysates (1.0 mg/mL), the indicated lipid probe (2.5 or 5 μM) and, for recombinant NUCB1 competition experiments, purified hNUCB1 (250 nM) and CaCl2 (100 μM) were mixed on ice. DMSO or competitors were then added to the proteome mixture (50 μM) in 96-well plates and each sample was incubated for 15 min at 37° C. The samples were then irradiated with UV light and subjected to previously described click chemistry conditions. As before, each reaction was quenched with 4×SDS loading buffer (17 μL), and proteins were resolved using SDS-PAGE (10% acrylamide gel) and analyzed by in-gel fluorescent scanning on a Hitachi FMBIO-II flatbed fluorescence scanner. NUCB1 competition was quantitatively assessed by measuring the fluorescent intensity of the corresponding gel band using ImageJ 1.48v and normalizing this value by a non-competed gel band to control for loading differences.
(§2) Metabolite data are shown as mean±SEM (n=3-5/group). Differences between two groups were determined using Student's t test (unpaired, two-tailed) and significance was denoted for P values<0.05.

For test [2], the target named is T1, human NUCB1. Put plainly: FluoPol assay / high throughput screen with Fl-AEA and recombinant NUCB1. The conditions noted are these: for suppression of the NUCB1-FluoPol signal (blockade of Fl-AEA binding): competitor lipids, recombinant NUCB1. The test is classed as binding. As to the method: FluoPol conditions were optimized by screening various concentrations of Fl-AEA, hNUCB1, CaCl2 and Pluronic F-127 against positive and negative controls. Arachidonic acid (20 μM final) was used as a positive control, and DMSO as a negative. Additionally, protein-free controls were used to normalize for background signal. […] The Z′-factor for these conditions was determined to be 0.54, indicating a high signal to noise assay.
A 10 μL solution of hNUCB1 (1 μM), Fl-AEA (0.5 μM), CaCl2 (20 μM), and Pluronic F-127 (0.01%) was added to a Greiner 384-well plate. Additionally, in some wells protein was omitted to serve as a blank control for background signal. To the protein containing wells 16,000 compounds (50 nL in DMSO, 2 mM) from the Maybridge Hitfinder library were added by a pin-tool robot. Additionally, on each plate to some wells arachidonic acid (20 μM final) or DMSO were added as positive and negative controls to allow normalization between plates. The plates were allowed to incubate for 5 minutes at room temperature, then fluorescence polarization was measured by measuring fluorescence intensity through polarized 595 nm filters. Hits were selected based on maximal probe competition.

The target of the next test is T2, NENF (Homo sapiens, UniProt Q9UMX5).
T2 construct: Full-length cDNAs encoding for the each protein of interest were subcloned into pcDNA3.1 myc-His A; Myc (myc-His of pcDNA3.1 myc-His A); expressed in transfected cells; host or cells: HEK293T (lysates)
Put plainly: In vitro gel-based competition of AEA-DA probe labeling of NENF. The test is classed as binding. To be noted: NENF-transfected HEK293T lysates; for competition of AEA-DA probe labeling of recombinant NENF: competitors 1-100 μM. As to the method: Full-length cDNAs encoding for the each protein of interest were subcloned into pcDNA3.1 myc-His A (Invitrogen) or used directly for transfections if available in a eukaryotic expression vector. HEK293T cells were grown to ˜70% confluence under standard growth conditions before adding the appropriate cDNA [control cells (“mock”) received an equal amount of empty pcDNA3.1 myc-His A vector] and FuGENE 6 or X-tremeGENE HP (Roche) transfection reagent according to the manufacturer's instructions. Cells were incubated for 36-48 hours before labeling in situ or harvesting for in vitro experiments.
as §1, with “DMSO or competitors were then added to the proteome mixture (50 μM) in 96-well plates and each sample was incubated for 15 min at 37° C.” left out
as §2

Test [3] concerns NAEs, NATs, AA and 2-AG in Neuro2a cells. Put plainly: Targeted LC-MS (MRM) analysis of lipids from Neuro2a cells. Type of test: cell-based, mouse. To be noted: Neuro2a cells, 10 μM (PF-7845 1 μM). As to the method: Discovery metabolite profiling was performed as described by Saghatelian et al., “Assignment of endogenous substrates to enzymes by global metabolite profiling,” Biochemistry 43:14332-14339 (2004) with several modifications. […] The media from the cells was removed and cells were washed with DPBS (2×5.0 mL) before adding freshly prepared media solutions containing vehicle or compound. After incubating for 6 h at 37° C. and subsequent removal of the media, the cells were harvested by scrapping in cold DPBS (3 mL) and pelleted by centrifugation in glass vials. The pellets were washed once with cold DPBS (3 mL) and then cold […] (2:1) (3 mL) was added. After vortexing, the vials were centrifuged (3,000×g, 10 min, 4° C.) and the bottom (organic) layer was transferred to a new glass vial and concentrated under a stream of N2. Samples were stored at −80° C. until the day of analysis when they were reconstituted in Mobile Phase A (100 μL, see below).
Neuro2a cells were treated and lipids extracted as described above. A mixture of internal standards [AEA-d4 (10 pmol), 2-AG-d5 (100 pmol), AA-d8 (100 pmol), PEA-d4 (100 pmol), PDA (1.0 nmol)] was added to the organic phase prior to extracting cells. NAEs, MAGs, AA and NATs were analyzed similarly to previously described methods (Saghatelian et al., 2004). The following MS parameters were used to measure the indicated metabolites by MRM (precursor ion, product ion, collision energy, polarity): NAE 20:4 (AEA) (348, 62, 12, positive), AEA-d4 (352, 66, 12, positive), NAE 16:0 (PEA) (300, 62, 12, positive), PEA-d4 (304, 62, 12, positive), NAE 18:0 (328, 62, 12, positive), NAE 18:1 (326, 62, 12, positive), NAE 18:2 (324, 62, 12, positive), 2-AG (379, 287, 8, positive), 2-AG-d5 (384, 287, 8, positive), AA (303, 259, 4, negative), AA-d8 (311, 267, 4, negative), NAT 20:4 (410, 80, 35, negative), NAT 22:1 (444, 80, 35, negative), NAT 24:1 (472, 80, 35, negative), NAT 24:0 (474, 80, 35, negative), NAT 26:0 (502, 80, 35, negative). The indicated lipids were quantified by measuring the area under the peak relative to an internal standard (AEA-d4 for AEA and NAE 18:2; PEA-d4 for PEA, NAE 18:1 and NAE 18:0; 2-AG-d5 for 2-AG; AA-d8 for AA and 20:4 NAT; PDA for all other NATs).

T2 sequence (Q9UMX5 32-172, species assumed): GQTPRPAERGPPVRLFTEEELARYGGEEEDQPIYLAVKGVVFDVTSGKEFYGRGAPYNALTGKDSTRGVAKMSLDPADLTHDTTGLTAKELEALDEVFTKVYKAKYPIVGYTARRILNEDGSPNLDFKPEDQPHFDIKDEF

As for `CCCCC/C=C\C/C=C\C/C=C\C/C=C\CCCC(=O)OC(CO)CO` [2-AG], at human NUCB1 [1], the “competition of AEA-DA probe labeling of recombinant NUCB1 by lipids” value was “blocked”. Also, the “suppression of the NUCB1-FluoPol signal (blockade of Fl-AEA binding)” value (from here on “suppression of the NUCB1-FluoPol signal”) at human NUCB1 [2] is “Concentration-dependent suppression”.
In the case of `CCCCC/C=C\C/C=C\C/C=C\C/C=C\CCCC(=O)O` [AA, Arachidonic acid], the “competition of AEA-DA probe labeling of recombinant NUCB1 by lipids” value at human NUCB1 [1] is “blocked”. Moreover, at human NUCB1 [2], the “suppression of the NUCB1-FluoPol signal” value is “Concentration-dependent suppression”. At NENF, the “competition of AEA-DA probe labeling of recombinant NENF” value is on record as “competitively blocked”.
Turning to `CCCCC/C=C\C/C=C\C/C=C\C/C=C\CCCC(=O)NCCCCCNC(=O)c1ccc(-c2c3ccc(=[N+](C)C)cc-3oc3cc(N(C)C)ccc23)c(C(=O)[O-])c1` [Fl-AEA, 2-(6-(Dimethylamino)-3-(dimethylmninio)-3H-xanthen-9-yl)-5-((5-((5Z,8Z,11Z,14Z)-icosa-5,8,11,14-tetraenamido)pentyl)carbamoyl)benzoate], at human NUCB1 [2] (Fl-AEA 0.5 μM, NUCB1 1.0 μM), the “binding to recombinant, purified human NUCB1 (FluoPol signal)” value was “substantial increase in fluorescence polarization (FluoPol) signal”.
`O=C(Nc1cccnn1)N1CCC(=Cc2cccc(Oc3ccc(C(F)(F)F)cn3)c2)CC1` [PF-7845, reference compound]: the 2-AG levels entry in test [3] is recorded as “greater degree”. For the same compound, the “cellular concentrations of NAEs and NATs” value in test [3] (6 h) is given as “elevated”.
As to `CCCCC[C@H](O)/C=C/[C@H]1C(=O)C[C@H](O)[C@@H]1C/C=C\CCCC(=O)NCCO` [PGD2-EA], the “suppression of the NUCB1-FluoPol signal” value on human NUCB1 [2] was “minimal blockade”.
Same read-out and setting: then `CCCCC[C@H](O)/C=C/[C@@H]1[C@@H](C/C=C\CCCC(=O)NCCO)[C@@H](O)C[C@H]1O` [PGF2α-EA], with “minimal blockade”; and `CC(C)CCC[C@@H](C)[C@H]1CC[C@H]2[C@@H]3CC=C4C[C@@H](O)CC[C@]4(C)[C@H]3CC[C@]12C` [cholesterol], with “minimal blockade”.
`C=Cc1c(C)c2cc3[n-]c(cc4nc(cc5nc(cc1[n-]2)C(C)=C5CCC(=O)O)C(CCC(=O)O)=C4C)c(C)c3C=C.[Cl-].[Fe+3]` [hemin]: the 50% inhibitory concentration (IC50) on NENF (read-out: IC50, inhibition of AEA-DA labeling of NENF) was 2000 nM. The “competition of AEA-DA probe labeling of recombinant NENF” value at NENF is on record as “inhibited in a concentration-dependent manner”.
Turning to `CCCCC[C@H](O)/C=C/[C@H]1C=CC(=O)[C@@H]1CCCCCCC(=O)O` [prostaglandin A1], at human NUCB1 [2], the “suppression of the NUCB1-FluoPol signal” value was “minimal blockade”.
As to `CCCCC[C@H](O)/C=C/C1=C(CCCCCCC(=O)O)C(=O)CC1` [prostaglandin B1], the “suppression of the NUCB1-FluoPol signal” value on human NUCB1 [2] is recorded as “minimal blockade”.
On the same count and under the same terms, then `CCCCC[C@H](O)/C=C/[C@H]1C(=O)C[C@H](O)[C@@H]1C/C=C\CCCC(=O)O` [prostaglandin D2], with “minimal blockade”.
Regarding `CCCCCCCCCCCCC/C=C/[C@@H](O)[C@@H](N)CO` [sphingosine], at human NUCB1 [2], the “suppression of the NUCB1-FluoPol signal” value was “minimal blockade”.
